Molecular target: T1, human PAH with the R408W mutation (A375 R408W cells) (Homo sapiens, UniProt P00439, R408W)
T1 construct: expressed in transfected cells
T1 sequence (P00439 1-452 R408W): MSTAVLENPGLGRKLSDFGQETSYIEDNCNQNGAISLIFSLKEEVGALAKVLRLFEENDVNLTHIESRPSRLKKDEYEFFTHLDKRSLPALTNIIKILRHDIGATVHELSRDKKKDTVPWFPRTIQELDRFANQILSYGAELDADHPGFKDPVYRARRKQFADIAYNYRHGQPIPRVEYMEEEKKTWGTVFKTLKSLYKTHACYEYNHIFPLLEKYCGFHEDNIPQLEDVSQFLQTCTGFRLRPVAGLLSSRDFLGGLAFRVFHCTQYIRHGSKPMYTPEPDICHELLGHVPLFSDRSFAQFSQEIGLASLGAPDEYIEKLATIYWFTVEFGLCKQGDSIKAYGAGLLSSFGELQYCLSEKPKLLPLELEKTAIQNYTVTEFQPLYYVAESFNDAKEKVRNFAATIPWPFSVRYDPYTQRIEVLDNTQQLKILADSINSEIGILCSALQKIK
Experiment: Cell Based Phenylalanine Flux Assay
Conditions: A375 cells expressing R408W PAH; 24 hrs with compound, then 20 μM sepiapterin and 800 μM 13C9,15N-Phenylalanine for 4 hours; 13C-Tyrosine by LC-MS; average where tested multiple times
Method in brief: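 Phenylalanine-to-tyrosine flux is measured in A375 cells carrying stable human R408W PAH. After 24 h compound exposure, 13C9,15N-Phe (800 μM) with sepiapterin (20 μM) is supplied for 4 h and media 13C-Tyr is read by LC-MS; AC50s are binned.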

Structure (SMILES) | AC50 [µM]
O=C(c1cnn2cc(N3CCC(O)CC3)ccc12)N1CCc2[nH]cnc2C1c1nc2c(F)cccc2o1 (centres unmarked) [listing 1 of 2 here] | ≥ 5
O=C(c1cnn2cc(N3CCC(O)CC3)ccc12)N1CCc2[nH]cnc2C1c1nc2ccc(F)c(F)c2o1 (centres unmarked) | 1 to 5
O=C(CCc1cncs1)N1CCc2[nH]cnc2C1c1nc2c(F)cccc2o1 (centres unmarked) | ≥ 5
O=C(Cc1cnn2ccccc12)N1CCc2[nH]cnc2C1c1nc2cc(F)ccc2o1 (centres unmarked) [listing 1 of 2 here] | ≥ 5
O=C(CCc1nccs1)N1CCc2[nH]cnc2C1c1nc2ccc(Br)cc2o1 (centres unmarked) [listing 1 of 2 here] | ≥ 5
O=C(CCc1nccs1)N1CCc2[nH]cnc2C1c1nc2ccc(F)cc2o1 (centres unmarked) [listing 1 of 2 here] | ≥ 5
CC(C)(O)c1cc(C(=O)N2CCc3[nH]cnc3C2c2nc3c(F)cccc3o2)no1 (centres unmarked) [listing 1 of 2 here] | ≥ 5
CC(C)(O)c1nc(C(=O)N2CCc3[nH]cnc3C2c2nc3ccc(F)cc3o2)no1 (centres unmarked) | ≥ 5
Cc1nc(C(C)(C)O)oc1C(=O)N1CCc2[nH]cnc2C1c1nc2cc(F)ccc2o1 (centres unmarked) [listing 1 of 2 here] | ≥ 5
COc1ccc2oc(C3c4nc[nH]c4CCN3C(=O)c3cnc(C(C)(C)O)o3)nc2c1 (centres unmarked) [listing 1 of 2 here] | ≥ 5
O=C(c1nncn1C1CC1)N1CCc2[nH]cnc2C1c1nc2cc(F)ccc2o1 (centres unmarked) [listing 1 of 2 here] | ≥ 5
O=C(c1cnco1)N1CCc2[nH]cnc2C1c1nc2c(F)cccc2o1 (centres unmarked) [listing 1 of 2 here] | ≥ 5
Cc1nc(-c2cnn(C)c2)oc1C(=O)N1CCc2[nH]cnc2C1c1nc2cc(F)ccc2o1 (centres unmarked) [listing 1 of 2 here] | ≥ 5
Cn1cncc1-c1nnc(C(=O)N2CCc3[nH]cnc3C2c2nc3cc(F)ccc3o2)o1 (centres unmarked) [listing 1 of 2 here] | ≥ 5
Cc1nnc(C(=O)N2CCc3[nH]cnc3C2c2nc3cc(F)ccc3o2)o1 (centres unmarked) [listing 1 of 2 here] | ≥ 5
COc1ccc2oc(C3c4nc[nH]c4CCN3C(=O)c3cnco3)nc2c1 (centres unmarked) [listing 1 of 2 here] | ≥ 5
CN(C)Cc1ccc2c(C(=O)N3CCc4[nH]cnc4C3c3nc4cc(F)ccc4o3)cnn2c1 (centres unmarked) [listing 1 of 2 here] | ≥ 5
O=C(c1cnn2cc(N3CCC(O)CC3)ccc12)N1CCc2[nH]cnc2C1c1nc2c(F)cccc2o1 (centres unmarked) [listing 2 of 2 here] | 1 to 5
O=C(CCc1cnco1)N1CCc2[nH]cnc2C1c1nc2c(F)cccc2o1 (centres unmarked) | 1 to 5
O=C(Cc1cnco1)N1CCc2[nH]cnc2C1c1nc2cc(F)ccc2o1 (centres unmarked) | 1 to 5
O=C(CCc1cncs1)N1CCc2[nH]cnc2C1c1nc2cc(F)ccc2o1 (centres unmarked) | 1 to 5

Structure (SMILES) | AC50 [µM]
O=C(CCc1cnco1)N1CCc2[nH]cnc2C1c1nc2cc(F)ccc2o1 (centres unmarked) | 1 to 5
O=C(Cc1cnn2ccccc12)N1CCc2[nH]cnc2C1c1nc2cc(F)ccc2o1 (centres unmarked) [listing 2 of 2 here] | 1 to 5
O=C(CCc1ncco1)N1CCc2[nH]cnc2C1c1nc2cc(F)ccc2o1 (centres unmarked) | 1 to 5
O=C(CCc1nccs1)N1CCc2[nH]cnc2C1c1nc2cc(F)ccc2o1 (centres unmarked) | 1 to 5
O=C(CCc1nccs1)N1CCc2[nH]cnc2C1c1nc2ccc(Br)cc2o1 (centres unmarked) [listing 2 of 2 here] | 1 to 5
O=C(CCc1ncco1)N1CCc2[nH]cnc2C1c1nc2ccc(F)cc2o1 (centres unmarked) | 1 to 5
O=C(CCc1cncs1)N1CCc2[nH]cnc2C1c1nc2ccc(F)cc2o1 (centres unmarked) | 1 to 5
O=C(CCc1nccs1)N1CCc2[nH]cnc2C1c1nc2ccc(F)cc2o1 (centres unmarked) [listing 2 of 2 here] | 1 to 5
O=C(CCc1cnco1)N1CCc2[nH]cnc2C1c1nc2ccc(F)cc2o1 (centres unmarked) | 1 to 5
O=C(CCc1cnco1)N1CCc2[nH]cnc2C1c1nc2cccc(F)c2o1 (centres unmarked) | 1 to 5
CC(C)(O)c1nc(C(=O)N2CCc3[nH]cnc3C2c2nc3cc(F)ccc3o2)no1 (centres unmarked) | ≥ 5
CC(C)(O)c1ncc(C(=O)N2CCc3[nH]cnc3C2c2nc3ccccc3o2)o1 (centres unmarked) | 1 to 5
COc1cccc2oc(C3c4nc[nH]c4CCN3C(=O)c3cnc(C(C)(C)O)o3)nc12 (centres unmarked) | 1 to 5
CC(C)(O)c1ncc(C(=O)N2CCc3[nH]cnc3C2c2nc3c(F)ccc(F)c3o2)o1 (centres unmarked) | 1 to 5
Cc1nc(C(C)(C)O)oc1C(=O)N1CCc2[nH]cnc2C1c1nc2cc(F)ccc2o1 (centres unmarked) [listing 2 of 2 here] | 1 to 5
COc1ccc2oc(C3c4nc[nH]c4CCN3C(=O)c3cnc(C(C)(C)O)o3)nc2c1 (centres unmarked) [listing 2 of 2 here] | 1 to 5
CC(C)(O)c1ncc(C(=O)N2CCc3[nH]cnc3C2c2nc3ccc(F)c(F)c3o2)o1 (centres unmarked) | 1 to 5
CC(C)(O)c1noc(C(=O)N2CCc3[nH]cnc3C2c2nc3cccc(F)c3o2)n1 (centres unmarked) | 1 to 5
Cc1cccc2nc(C3c4nc[nH]c4CCN3C(=O)c3cnc(C(C)(C)O)o3)oc12 (centres unmarked) | 1 to 5
O=C(c1nncn1C1CC1)N1CCc2[nH]cnc2C1c1nc2cc(F)ccc2o1 (centres unmarked) [listing 2 of 2 here] | 1 to 5
Cn1cc(-c2nnc(C(=O)N3CCc4[nH]cnc4C3c3nc4cc(C(F)(F)F)ccc4o3)o2)cn1 (centres unmarked) | 1 to 5

Structure (SMILES) | AC50 [µM]
O=C(c1nnc(-c2ncccc2F)o1)N1CCc2[nH]cnc2C1c1nc2cc(C(F)(F)F)ccc2o1 (centres unmarked) | 1 to 5
O=C(c1nnc(-c2ccccn2)o1)N1CCc2[nH]cnc2C1c1nc2cc(C(F)(F)F)ccc2o1 (centres unmarked) | 1 to 5
O=C(C1CC1)N1CCc2[nH]cnc2C1c1nc2cc(F)ccc2o1 (centres unmarked) | 1 to 5
O=C(c1cnco1)N1CCc2[nH]cnc2C1c1nc2c(F)cccc2o1 (centres unmarked) [listing 2 of 2 here] | 1 to 5
O=C(c1nnc(-c2cn[nH]c2)o1)N1CCc2[nH]cnc2C1c1nc2c(F)cccc2o1 (centres unmarked) | 1 to 5
O=C(c1nc(C(F)(F)F)co1)N1CCc2nc[nH]c2C1c1nc2cc(F)ccc2o1 (centres unmarked) | 1 to 5
Cc1nc(-c2cnn(C)c2)oc1C(=O)N1CCc2[nH]cnc2C1c1nc2cc(F)ccc2o1 (centres unmarked) [listing 2 of 2 here] | 1 to 5
Cn1cncc1-c1nnc(C(=O)N2CCc3[nH]cnc3C2c2nc3cc(F)ccc3o2)o1 (centres unmarked) [listing 2 of 2 here] | 1 to 5
O=C(c1nnc(-c2ccncc2)o1)N1CCc2[nH]cnc2C1c1nc2cc(F)ccc2o1 (centres unmarked) | 1 to 5
O=C(c1nnc(-c2ncccn2)o1)N1CCc2[nH]cnc2C1c1nc2cc(F)ccc2o1 (centres unmarked) | 1 to 5
Cc1nnc(C(=O)N2CCc3[nH]cnc3C2c2nc3cc(F)ccc3o2)o1 (centres unmarked) [listing 2 of 2 here] | 1 to 5
Fc1ccc2oc(C3c4nc[nH]c4CCN3Cc3cnco3)nc2c1 (centres unmarked) | ≥ 5
COc1ccc2oc(C3c4nc[nH]c4CCN3C(=O)c3cnco3)nc2c1 (centres unmarked) [listing 2 of 2 here] | 1 to 5
O=C(c1nnc(-c2cn[nH]c2)o1)N1CCc2[nH]cnc2C1c1nc2ccc(F)cc2o1 (centres unmarked) | 1 to 5
O=C(c1nnc(-c2ccn[nH]2)o1)N1CCc2[nH]cnc2C1c1nc2ccc(F)cc2o1 (centres unmarked) | 1 to 5
Cc1ccc2nc(C3c4nc[nH]c4CCN3C(=O)c3nnc(-c4cn[nH]c4)o3)oc2c1 (centres unmarked) | 1 to 5
O=C(c1cnco1)N1CCc2[nH]cnc2C1c1nc2ccc(F)c(F)c2o1 (centres unmarked) | 1 to 5
CN(C)Cc1ccc2c(C(=O)N3CCc4[nH]cnc4C3c3nc4cc(F)ccc4o3)cnn2c1 (centres unmarked) [listing 2 of 2 here] | 1 to 5
CC(C)(O)c1nc(C(F)F)c(C(=O)N2CC3(CC3)c3[nH]cnc3C2c2nc3cc(F)ccc3o2)o1 (centres unmarked) | 1 to 5

Next, values leading:

AC50 [µM] | Structure (SMILES)
≥ 5 | CC(C)(O)c1nc(C(=O)N2CCc3[nH]cnc3C2c2nc3c(F)cccc3o2)no1 (centres unmarked) [listing 1 of 2 here]
1 to 5 | Cn1nc(C(F)F)nc1C(=O)N1CCc2[nH]cnc2C1c1nc2cc(F)ccc2o1 (centres unmarked)
≥ 5 | Cn1nc(C(C)(C)O)nc1C(=O)N1CCc2[nH]cnc2C1c1nc2cccc(F)c2o1 (centres unmarked) [listing 1 of 2 here]
1 to 5 | Cn1cnnc1C(=O)N1CCc2[nH]cnc2C1c1nc2c(F)cccc2o1 (centres unmarked)
≥ 5 | O=C(c1cnco1)N1CCc2[nH]cnc2C1c1nc2c(F)c(F)ccc2o1 (centres unmarked) [listing 1 of 2 here]
≥ 5 | O=C(c1cnco1)N1CCc2[nH]cnc2C1c1nc2c(F)cc(F)cc2o1 (centres unmarked) [listing 1 of 2 here]
≥ 5 | Cn1nc(-c2ccccn2)nc1C(=O)N1CCc2[nH]cnc2C1c1nc2cccc(F)c2o1 (centres unmarked) [listing 1 of 2 here]
1 to 5 | CC(C)(O)c1nc(C(=O)N2CCc3[nH]cnc3C2c2nc3c(F)cccc3o2)no1 (centres unmarked) [listing 2 of 2 here]
1 to 5 | CC(C)(O)c1cc(C(=O)N2CCc3[nH]cnc3C2c2nc3c(F)cccc3o2)no1 (centres unmarked) [listing 2 of 2 here]
1 to 5 | O=C(c1ccnn1C(F)F)N1CCc2[nH]cnc2C1c1nc2c(F)c(F)ccc2o1 (centres unmarked)
1 to 5 | Cn1nc(C(F)F)nc1C(=O)N1CCc2[nH]cnc2C1c1nc2c(F)c(F)ccc2o1 (centres unmarked)
1 to 5 | Cn1nc(C(F)F)nc1C(=O)N1CCc2[nH]cnc2C1c1nc2c(F)cccc2o1 (centres unmarked)
1 to 5 | Cn1nc(C(F)F)nc1C(=O)N1CCc2[nH]cnc2C1c1nc2c(F)cc(F)cc2o1 (centres unmarked)
1 to 5 | Cn1nc(C(F)F)nc1C(=O)N1CCc2[nH]cnc2C1c1nc2ccc(F)cc2o1 (centres unmarked)
1 to 5 | Cn1nc(C(F)F)nc1C(=O)N1CCc2[nH]cnc2C1c1nc2ccc(F)c(F)c2o1 (centres unmarked)
1 to 5 | CC(C)(O)c1ncc(C(=O)N2CCc3[nH]cnc3C2c2nc3c(F)c(F)ccc3o2)o1 (centres unmarked)
1 to 5 | CC(C)(O)c1ncc(C(=O)N2CCc3[nH]cnc3C2c2nc3c(F)cc(F)cc3o2)o1 (centres unmarked)
1 to 5 | CC(C)(O)c1nc(C(F)F)c(C(=O)N2CCc3[nH]cnc3C2c2nc3cc(F)c(F)cc3o2)o1 (centres unmarked)
1 to 5 | CC(C)(O)c1ncc(C(=O)N2CCc3[nH]cnc3C2c2nc3cc(F)cc(F)c3o2)o1 (centres unmarked)
1 to 5 | Cn1nc(C(C)(C)O)nc1C(=O)N1CCc2[nH]cnc2C1c1nc2cccc(F)c2o1 (centres unmarked) [listing 2 of 2 here]
1 to 5 | O=C(c1nncn1C1CC1)N1CCc2[nH]cnc2C1c1nc2ccc(F)cc2o1 (centres unmarked)
1 to 5 | O=C(c1nncn1C1CC1)N1CCc2[nH]cnc2C1c1nc2c(F)cccc2o1 (centres unmarked)
1 to 5 | O=C(c1cnco1)N1CCc2[nH]cnc2C1c1nc2c(F)c(F)ccc2o1 (centres unmarked) [listing 2 of 2 here]
1 to 5 | O=C(c1cnco1)N1CCc2[nH]cnc2C1c1nc2c(F)cc(F)cc2o1 (centres unmarked) [listing 2 of 2 here]
1 to 5 | Cn1cnnc1C(=O)N1CCc2[nH]cnc2C1c1nc2cc(F)ccc2o1 (centres unmarked)
1 to 5 | Cn1cnc(-c2nnc(C(=O)N3CCc4[nH]cnc4C3c3nc4cc(F)ccc4o3)o2)c1 (centres unmarked)
1 to 5 | Cn1nc(-c2ccccn2)nc1C(=O)N1CCc2[nH]cnc2C1c1nc2cccc(F)c2o1 (centres unmarked) [listing 2 of 2 here]
1 to 5 | Cn1cnnc1C(=O)N1CCc2[nH]cnc2C1c1nc2cccc(F)c2o1 (centres unmarked)
